Assay results published in PMC6637691, “Phenothiazinium Dyes Are Active against Trypanosoma cruzi In Vitro” (BioMed Research International, 2019).

What was measured:
T. cruzi amastigotes [1] = experiment: Amastigote growth inhibition assay (T. cruzi-LacZ, CPRG readout); format: cell-based; details: Trypanosoma cruzi, LLC-MK2, amastigotes in LLCMK2 cells, 72 h, 37°C, three independent assays
Protocol: T. cruzi (Tulahuen strain) was maintained in cultures of LLCMK2 cells and cultivated in RMPI supplemented with 10% fetal bovine serum (FBS) at 37°C, 5% CO2. The parasites used in proliferation and flow cytometry assays were genetically modified to express the enzyme β-galactosidase (T. cruzi-LacZ [9]). To illustrate the inhibition of parasite proliferation, a T. cruzi expressing GFP (G-GFP strain [10]) was used.
(§1) LLCMK2 cells were distributed in 96-well plates (5×10^4 cells/ml) and infected with T. cruzi-LacZ at a multiplicity of infection (MOI) of 10:1 (5×10^5 cells/ml). The cultures were incubated for 48 h, 37°C, and 5% CO2 and washed with phosphate buffered saline (PBS). Serial dilutions of compounds (starting from 10 μM) in RPMI were added to the cultures in duplicate and incubated for 72 h, 37°C,and 5% CO2. […] After incubation, the media were removed and followed by the reaction with chlorophenol red-β-D-galactopyranoside (CPRG) buffer (200 μM CPRG, 2% Trion X-100, and 50 mM MgCl2 in PBS) for 4 h, 37°C. The plates were read at 570 nm in ELISA reader (Synergy™ H1, Biotek). Three independent assays were performed.
(§2) The percentages of proliferation and cytotoxicity were calculated using the mean absorbance of the compound-free control and the absorbance of each treatment. The IC50 and the combination index (CI) were achieved using Compusyn software (http://www.combosyn.com/) and the selective index (CC50/IC50) was also determined. From CI values, synergistic (CI < 1), and antagonistic (CI > 1) interactions were identified. For oxidative stress and mitochondrial activity, data were analyzed by one-way ANOVA followed by a Dunnett's post hoc test (compared to nontreated groups) on GraphPad 5.0 software.

Cytotoxicity (MTT assay) = format: cell-based; details: rhesus monkey; LLCMK2 cells, 72 h, MTT assay
Protocol: (§3) The cytotoxic effects of the phenothiazinium dyes in LLCMK2 cells was measured by Thiazolyl Blue Tetrazolium Bromide (MTT) assay, as described in [12]. A suspension of LLCMK2 cells (5 × 10^4/ml) in RPMI supplemented with 10% FBS was distributed in 96-well plates and cultivated (37°C, 5% CO2) to the confluence. […] The cultures were incubated for 72 h, 37°C, and 5% CO2. For the measurement of the […], the media were carefully removed and an MTT solution (500 μg/ml MTT in PBS) was added. The reaction was performed for 4 h at 37°C, 5% CO2. After the reaction, the MTT solution was discarded and the formazan crystals solubilized with DMSO. The absorbance was measured in an ELISA reader (Synergy™ H1, Biotek) at 570 nm. The percentages of proliferation and cytotoxicity were calculated using the mean absorbance of the compound-free control and the absorbance of each treatment. The IC50 and the combination index (CI) were achieved using Compusyn software (http://www.combosyn.com/) and the selective index (CC50/IC50) was also determined. […] For oxidative stress and mitochondrial activity, data were analyzed by one-way ANOVA followed by a Dunnett's post hoc test (compared to nontreated groups) on GraphPad 5.0 software.

LLCMK2 cells = experiment: Cytotoxicity (MTT assay); format: cell-based; details: CC50 LLCMK2 / IC50 amastigotes
Protocol: as §3

T. cruzi amastigotes [2] = experiment: Drug combination assay against amastigotes (CPRG, Compusyn); format: cell-based; details: Trypanosoma cruzi
Protocol: as §1, §2
As references, isolated compounds of each combination were evaluated concomitantly in the same plate. The inhibition percentage was calculated in comparison to the nontreated group and the IC50 and CI values were achieved using Compusyn software.

T. cruzi trypomastigotes [3] = experiment: ROS measurement (DCFDA, flow cytometry) in trypomastigotes; format: cell-based, Trypanosoma cruzi; details: 4 × IC50, 2 h
Protocol: (§4) LLCMK2 cells in 75 cm^2 flasks were cultivated to confluence and were infected with 1 × 10^7 T. cruzi trypomastigotes. […] The infected cells were centrifuged for 10 min, 3000 g, and washed with PBS and suspended in trypsin to separate cells and parasites. The cultures were distributed in 1.5 ml microtubes (~ 1 × 10^6 trypomastigotes/tube) and incubated with 4 × IC50 of compounds at 37°C, 5% CO2 for 2 h. Menadione (MN), a classic inducer of cellular oxidative stress, was used as the positive control of ROS production as previously described in [14]. After treatment, the cultures were centrifuged for 10 minutes, 3000 g, and washed with PBS and suspended in trypsin. […] Similarly, the mitochondrial membrane potential was determined after incubation with 5 μM JC-1 under the same conditions. […] In polarized mitochondria, the dye forms J-aggregates, emitting red fluorescence. The cultures were washed with PBS and analyzed in a BD FACS-Canto (BD Biosciences) flow cytometer with the FACSDiva (BD) 6.1.3 software. Due to the size, host cells (infected and noninfected) and trypomastigotes were separately analyzed by flow cytometry. The median of fluorescence of oxidized DCF and the populations with active mitochondria were measured with excitation/emission at 488 nm/529 nm and […]. […]

noninfected LLCMK2 cells = experiment: ROS measurement (DCFDA, flow cytometry) in noninfected cells; format: cell-based; details: 4 × IC50, 2 h
Protocol: as §4

T. cruzi trypomastigotes [4] = experiment: Mitochondrial membrane potential (JC-1, flow cytometry) in trypomastigotes; format: cell-based, Trypanosoma cruzi; details: 4 × IC50, 2 h
Protocol: as §4

[5] = 72 h, read-out: IC50 (compound 1), compound 1 alone, evaluated in the same plate as the combination
[6] = 72 h, compound 2 alone, evaluated in the same plate as the combination, read-out: IC50 (compound 2)

Row | SMILES | IC50 (T. cruzi amastigotes [1]) [µM] | CC50 at 72 h (Cytotoxicity (MTT assay)) [µM] | SI (selectivity index, CC50/IC50) (LLCMK2 cells) | IC50 (T. cruzi amastigotes [2]; [5]) [µM] | ROS production in trypomastigotes (T. cruzi trypomastigotes [3]) | ROS production in noninfected cells (noninfected LLCMK2 cells) | Mitochondrial membrane potential in trypomastigotes (T. cruzi trypomastigotes [4]) | IC50 (T. cruzi amastigotes [2]; [6]) [µM] | IC50 (T. cruzi amastigotes [2]; 72 h, compound 1 alone, evaluated in the same plate as the combination, read-out: IC50 (compound 1)) [µM] | IC50 (T. cruzi amastigotes [2]; 72 h, read-out: IC50 (compound 2), compound 2 alone, evaluated in the same plate as the combination) [µM] | IC50 (T. cruzi amastigotes [2]; read-out: IC50 (compound 2), compound 2 alone, evaluated in the same plate as the combination) [µM]
1 | O=C(Cn1ccnc1[N+](=O)[O-])NCc1ccccc1 [BZ, Benznidazole] | 3.41 ± 0.38 | > 200 | > 58.65 | 3.31 | no ROS production was detected | increased ROS production | did not affect mitochondria | – | – | – | –
2 | Cc1cc(N(C)C)cc2[s+]c3cc(N(C)C)cc(C)c3nc12 [DMMB, 1,9–Dimethyl Methylene Blue] | 0.08 ± 0.02 | 4.46 ± 0.23 | 51.26 | – | – | – | – | 0.071 | – | – | –
3 | CN(C)c1ccc2nc3ccc(=[N+](C)C)cc-3sc2c1 [MB, Methylene Blue] | 0.44 ± 0.15 | 16.8 ± 1.18 | 37.40 | – | – | – | – | 0.477 | 0.56 | – | –
4 | CC1=CC(=O)c2ccccc2C1=O [MN, Menadione] | – | – | – | – | increased ROS production | increased ROS production | reduced the membrane potential | – | – | – | –
5 | CCNc1cc2[s+]c3cc(NCC)c(C)cc3nc2cc1C [NMB, New Methylene Blue] | 0.09 ± 0.01 | 4.19 ± 1.3 | 44.71 | 0.122 | – | – | – | 0.1 | – | – | –
6 | Cc1cc2nc3ccc(N(C)C)cc3[s+]c2cc1N [TBO, Toluidine Blue O] | 0.27 ± 0.11 | 7.93 ± 5.22 | 28.61 | 0.381 | – | – | – | – | – | 0.322 | 0.322
